The values below are quoted from earlier work in patent US20130165526A1, “TOPICAL TREATMENT WITH DAPSONE IN G6PD-DEFICIENT PATIENTS” (ALLERGAN, INC., priority 2007, published 2013).

The series relates to P. acnes. The settings on record: Godowski et al., 2000.

Turning to `Nc1ccc(S(=O)(=O)c2ccc(N)cc2)cc1` [Dapsone, bis(4-aminophenyl)sulfone], the Minimum inhibitory concentration result is given as “about 1 microgram per milliliter”.
